Experimental data reported in patent US10603296B1, “Compositions and methods for diagnosis and treatment of neuromuscular disorders” (United States of America as represented by the Secretary of …, priority 2019, dated 2020).
Entries after “also recorded” stand apart in the source; their conditions may differ.

How the values were obtained:
[1] = system: alpha-smooth muscle actin (α-SMA); test: BioMAP human primary cell system mimicking myofibroblast development: alpha-smooth muscle actin level; assay type: cell-based; settings: human primary lung fibroblasts stimulated with TGF-β and TNF-α, 24 hours; 2.6, 7.8, 23 and 70 μM; dose-dependent (FIG. 4)
Description: Phenotypic profiling, including antifibrotic activity, was conducted across 12 human primary cell-based systems as part of DiscoverX's BioMAP Diversity Plus program. These systems are designed to model complex human tissue and disease biology of the vasculature, skin, lung, and inflammatory tissues. […] Cell-based activated systems were incubated with pure N-acetylhistamine for 24 to 72 hours. Protein-based biomarkers from activated cell systems were measured and compared with controls. Biomarker activities were annotated when 2 or more consecutive concentrations change in the same directions relative to vehicle controls, were outside of the significance envelope and had at least one concentration with an effect size >20% (log 10 ratio)>0.1.
In our study, N-acetylhistamine, an […] involved in histadine metabolism, caused a significant and dose-dependent decrease in alpha-smooth muscle actin (α-SMA), a protein involved in muscle contraction, cell motility, structure and integrity and a marker for activated myofibroblast phenotype, in a human cell system mimicking myofibroblast development. In this system, human primary lung fibroblasts were stimulated with TGF-β and TNF-α and incubated with the test agent, drug control, or vehicle control for 24 hours. A negative, non-stimulated system was also included.

[2] = room temperature; cited from earlier work
[3] = system: G-protein Gi1α; settings: literature (Galbiati et al., Biochem J 313:717-720); cited from earlier work

SMILES	change in alpha-smooth muscle actin (α-SMA) compared to internal controls [1]	stability of the powder [2]	effect on myristoylation of Gi1α [3]
CC(=O)NCCc1c[nH]cn1 [N-acetylhistamine]	significantly decreased; also recorded: lowered	stable at room temperature	
CCCCCCCCCCCCC(O)C(=O)O (stereo not drawn) [2-hydroxymyristate]			inhibits
